Patent publication US8507475B2, “Substituted heteroarylamide diazepinopyrimidone derivatives” (Sanofi, priority 2008, dated 2013)
Counter-ions that a name gives are not always drawn.

What was measured:
GSK3β = GSK3β (Homo sapiens, UniProt P49841); experiment: Inhibitory activity against GSK3β (33P-ATP phosphorylation of prephosphorylated GS1 peptide); type: biochemical; details: protocol 4: commercial GSK3beta (Millipore), 7.5 μM GS1 peptide, 10 μM ATP, 50 mM Hepes pH 7.2, 90 minutes at room temperature
Sequence of GSK3β (P49841 whole entry): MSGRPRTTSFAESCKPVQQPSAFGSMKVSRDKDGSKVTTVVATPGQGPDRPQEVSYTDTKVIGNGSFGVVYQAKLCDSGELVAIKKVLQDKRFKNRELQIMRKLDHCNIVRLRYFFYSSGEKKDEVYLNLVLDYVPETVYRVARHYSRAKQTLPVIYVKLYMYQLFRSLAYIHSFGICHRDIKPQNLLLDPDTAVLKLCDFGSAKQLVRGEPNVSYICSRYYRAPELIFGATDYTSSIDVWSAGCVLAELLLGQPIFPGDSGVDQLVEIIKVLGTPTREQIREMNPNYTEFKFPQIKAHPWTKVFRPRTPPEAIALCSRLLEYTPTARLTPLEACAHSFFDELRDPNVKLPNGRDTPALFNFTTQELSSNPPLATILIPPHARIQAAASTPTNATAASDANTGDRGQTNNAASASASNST
Protocol: Four different protocols can be used. In a first protocol: 7.5 μM of prephosphorylated GS1 peptide and 10 μM ATP (containing 300,000 cpm of ^33P-ATP) were incubated in 25 mM Tris-HCl, pH 7.5, 0.6 mM DTT, 6 mM MgCl2, 0.6 mM EGTA, 0.05 mg/ml BSA buffer for 1 hour at room temperature in the presence of GSK3beta (total reaction volume: 100 microliters). In a second protocol: 4.1 μM of prephosphorylated GS1 peptide and 42 μM ATP (containing 260,000 cpm ^33P-ATP) were incubated in 80 mM Mes-NaOH, pH 6.5, 1 mM Mg acetate, 0.5 mM EGTA, 5 mM 2-mercaptoethanol, 0.02% Tween 20, 10% glycerol buffer for 2 hours at room temperature in the presence of GSK3beta. In a third protocol: 7.5 μM of prephosphorylated GS1 peptide and 10 μM ATP (containing 300,000 cpm of ^33P-ATP) were incubated in 50 mM Hepes, pH 7.2, 1 mM DTT, 1 mM MgCl2, 1 mM EGTA, 0.01% Tween 20 buffer for one hour at room temperature in the presence of GSK3beta (total reaction volume: 100 microliters). In a fourth protocol: 7.5 μM of prephosphorylated GS1 peptide and 10 μM ATP (containing 300,000 cpm of ^33P-ATP) were incubated in 50 mM Hepes, pH 7.2, 1 mM DTT, 1 mM MgCl2, 1 mM EGTA, 0.01% Tween 20 buffer for 90 minutes at room temperature in the presence of commercial GSK3beta (Millipore) (total reaction volume: 100 microliters). Inhibitors were solubilised in DMSO (final solvent concentration in the reaction medium, 1%). The reaction was stopped with 100 microliters of a solution made of 25 g polyphosphoric acid (85% P2O5), 126 ml 85% H3PO4, H2O to 500 ml and then diluted to 1:100 before use. An aliquot of the reaction mixture was then transferred to Whatman P81 cation exchange filters and rinsed with the solution described above. Incorporated ^33P radioactivity was determined by liquid scintillation spectrometry. The phosphorylated GS-1 peptide had the following sequence: NH2-[…](P)EDEE-COOH. (Woodgett, J. R. (1989) Analytical Biochemistry 180, 237-241.

Structure (SMILES)	melting point	IC50 (GSK3β)
O=C(NC1CNCCn2c1nc(-c1ccncc1)cc2=O)c1cc(F)cc2c1OCOC2 (racemic) (as salt: HCl) [Compound No. 26, (+/−)-6-Fluoro-4H-benzo[1,3]dioxine-8-carboxylic acid (4-oxo-2-pyridin-4-yl-4,5,6,7,8,9-hexahydro-1,4a,7-triaza-benzocyclohepten-9-yl)-amide]	232 to 234 °C	–
CCOC(=O)N1CCn2c(nc(-c3ccncn3)cc2=O)C(NC(=O)c2ccc3ncccc3n2)C1 (racemic) [Compound No. 1, (+/−)-9-[([1,5]Naphthyridine-2-carbonyl)-amino]-4-oxo-2-pyrimidin-4-yl-5,6,8,9-tetrahydro-4H-1,4a,7-triaza-benzocycloheptene-7-carboxylic acid ethyl ester]	284 to 286 °C	73 nM
O=C(NC1CNCCn2c1nc(-c1ccncc1)cc2=O)c1cc(F)cc2c1OCOC2 (racemic) [Compound No. 26, (+/−)-6-Fluoro-4H-benzo[1,3]dioxine-8-carboxylic acid (4-oxo-2-pyridin-4-yl-4,5,6,7,8,9-hexahydro-1,4a,7-triaza-benzocyclohepten-9-yl)-amide]	–	12 nM
CCOC(=O)N1CCn2c(nc(-c3ccncc3)cc2=O)C(NC(=O)c2cccc3c2OCC3)C1 (racemic) [compound 8, (+/−)-9-[(2,3-Dihydro-benzofuran-7-carbonyl)-amino]-4-oxo-2-pyridin-4-yl-5,6,8,9-tetrahydro-4H-1,4-a,7-thaza-benzocycloheptene-7-carboxylic acid ethyl ester]	284 to 286 °C	109 nM
CN1CCn2c(nc(-c3ccncn3)cc2=O)C(NC(=O)c2cc(Cl)c(N)c3c2OCCO3)C1 (racemic) [compound 22, (+/−)-8-Amino-7-chloro-2,3-dihydro-benzo[1,4]dioxine-5-carboxylic acid (7-methyl-4-oxo-2-pyrimidin-4-yl-4,5,6,7,8,9-hexahydro-1,4a,7-triaza-benzocyclohepten-9-yl)-amide]	169 to 171 °C	47 nM
